Results published in US20230295068A1, “NOVEL CYCLOALKENONE COMPOUND OR SALT THEREOF” (TAIHO PHARMACEUTICAL CO., LTD., priority 2020, published 2023).

Test system: ND3 neuronal cell line
Test: Measurement of nerve growth stimulation effect (neurite bearing assay, neurite length assay, number of cells)
Type: cell-based
Conditions: relative cell number, DMSO well = 1; for viability at 1 µM / viability at 3 µM / viability at 5 µM / viability at 10 µM / viability at 30 µM / viability at 100 µM: 6 hours; for Number of cells: ND3 cells, 6 h
Protocol: To evaluate the nerve growth stimulation effect, neurite bearing assay (proportion of neurite-bearing cells) and neurite length assay (neurite length) were analyzed with reference to the method of Topalli et al. (Brain Research 1030 (2004), pp. 116-124).
An ND3 neuronal cell line (European Collection of Authenticated Cell Cultures) was seeded in a DMEM medium containing 10% fetal bovine serum (0.6×10^4 cells/1 mL) in a 24-well plate. 24 hours later, the medium of seeded cells was removed, and a solution in which the compound of the present disclosure that was sequentially diluted in dimethyl sulfoxide (DMSO) was adjusted in DIEM containing 0.1% bovine serum albumin so that the DMSO final concentration was 0.1%, was added to cells (evaluation performed in duplicate). After six hours from the addition, the proportion of neurite-bearing cells (the number of cells having a neurite longer than the diameter of the cell body/number of total cells), and the neurite length per cell were analyzed. The number of total cells, proportion of neurite-bearing cells, and neurite length per cell were analyzed using a MetaMorph Neurite Outgrowth Application Module (Molecular Devices Japan K.K.). The number of cells was defined as the relative cell number, taking the number of cells per well containing DMSO as 1. The relative activity of each compound when the maximum activity of 3-(15-methoxypentadecyl)-2,4,4-trimethylcyclohexa-2-en-1-one (compound 24) in each test was defined as 1 is shown (Table 9). For the compounds for which multiple tests were conducted, the average value was shown. Data with a number of cells of 0.5 or more was also used. Accordingly, if the number of cells was less than 0.5, the neurite length per cell and the proportion of neurite-bearing cells were defined as “-”.

| SMILES | viability at 1 µM | viability at 3 µM | viability at 5 µM | viability at 10 µM | viability at 30 µM | viability at 100 µM | Number of cells (1 μM compound) | Number of cells (3 μM compound) | Number of cells (5 μM compound) | Number of cells (10 μM compound) | Number of cells (30 μM compound) | Number of cells (100 μM compound) |
| --- | --- | --- | --- | --- | --- | --- | --- | --- | --- | --- | --- | --- |
| CC1=C(CCCCCCCCCCCCCCCOc2ccccc2)C(C)(C)CCC1=O [Compound 51, 3-(15-phenoxypentadecyl)-2,4,4-trimethylcyclohex-2-en-1-one] | 107% | 103% | 93% | 93% | 96% | 94% |  |  |  |  |  |  |
| CC1=C(CCCCCCCCCCCCCCCOCc2ccccc2)C(C)(C)CCC1=O [Compound 52, 3-(15-(benzyloxy)pentadecyl)-2,4,4-trimethylcyclohex-2-en-1-one] | 105% | 100% | 95% | 96% | 90% | 96% |  |  |  |  |  |  |
| CC1=C(CCCCCCCCCCCCCCCOC(=O)c2ccccc2)C(C)(C)CCC1=O [Compound 53, 15-(2,6,6-trimethyl-3-oxocyclohex-1-en-1-yl)pentadecyl benzoate] | 91% | 95% | 94% | 96% | 105% | 115% |  |  |  |  |  |  |
| CC1=C(CCCCCCCCCCCCCCC(=O)N(C)C)C(C)(C)CCC1=O [Compound 54, N,N-dimethyl-15-(2,6,6-trimethyl-3-oxocyclohex-1-en-1-yl)pentadecanamide] | 93% | 112% | 87% | 90% | 4% | 5% |  |  |  |  |  |  |
| CNC(=O)OCCCCCCCCCCCCCCCC1=C(C)C(=O)CCC1(C)C [Compound 55, 15-(2,6,6-trimethyl-3-oxocyclohex-1-en-1-yl)pentadecylmethylcarbamate] | 105% | 102% | 85% | 85% | 69% | 25% |  |  |  |  |  |  |
| CCNC(=O)OCCCCCCCCCCCCCCCC1=C(C)C(=O)CCC1(C)C [Compound 56, 15-(2,6,6-trimethyl-3-oxocyclohex-1-en-1-yl)pentadecylethylcarbamate] | 94% | 106% | 93% | 95% | 95% | 93% |  |  |  |  |  |  |
| CCOC(=O)OCCCCCCCCCCCCCCCC1=C(C)C(=O)CCC1(C)C [Compound 57, ethyl (15-(2,6,6-trimethyl-3-oxocyclohex-1-en-1-yl)pentadecyl) carbonate] | 96% | 93% | 86% | 90% | 97% | 100% |  |  |  |  |  |  |
| CCC1=C(CCCCCCCCCCCCCCCOC)C(C)(C)CCC1=O [Compound 60, 2-ethyl-3-(15-methoxypentadecyl)-4,4-dimethylcyclohex-2-en-1-one] | 90% | 91% | 80% | 78% | 34% | 79% |  |  |  |  |  |  |
| CCCC1=C(CCCCCCCCCCCCCCCOC)C(C)(C)CCC1=O [Compound 61, 3-(15-methoxypentadecyl)-4,4-dimethyl-2-propylcyclohex-2-en-1-one] |  |  |  |  |  |  | 0.84 | 0.82 | 0.87 | 0.77 | 0.92 | 0.82 |
| COCCCCCCCCCCCCCCCC1=C(C(C)C)C(=O)CCC1(C)C [Compound 62, 2-isopropyl-3-(15-methoxypentadecyl)-4,4-dimethylcyclohex-2-en-1-one] |  |  |  |  |  |  | 0.92 | 0.89 | 0.83 | 0.78 | 0.91 | 0.91 |
| COCCCCCCCCCCCCCCCC1C(C)C(=O)CCC1(C)C (stereo not drawn) [Compound 63, 3-(15-methoxypentadecyl)-2,4,4-trimethylcyclohexan-1-one] |  |  |  |  |  |  | 1.13 | 1.05 | 0.84 | 0.91 | 1.11 | 1.16 |
| COCCCCCCCCCCCCCCCC1=C(C)CCCC1(C)C [Compound 64, 2-(15-methoxypentadecyl)-1,3,3-trimethylcyclohex-1-ene] |  |  |  |  |  |  | 0.80 | 0.93 | 0.96 | 0.88 | 0.96 | 0.53 |
| COCCCCCCCCCCCCCCCC1=C(C)C(O)CCC1(C)C (stereo not drawn) [Compound 65, 3-(15-methoxypentadecyl)-2,4,4-trimethylcyclohex-2-en-1-ol] |  |  |  |  |  |  | 1.05 | 1.09 | 0.86 | 0.87 | 1.05 | 1.09 |
| COCCCCCCCCCCCCCCCC1=C(C)C(N)CCC1(C)C (stereo not drawn) [Compound 66, 3-(15-methoxypentadecyl)-2,4,4-trimethylcyclohex-2-en-1-amine] |  |  |  |  |  |  | 1.15 | 1.11 | 0.80 | 0.79 | 0.39 | 0.04 |
| COCCCCCCCCCCCCCCCC1=C(C)C(=NO)CCC1(C)C [Compound 67, 3-(15-methoxypentadecyl)-2,4,4-trimethylcyclohex-2-en-1-one oxime] |  |  |  |  |  |  | 0.92 | 0.89 | 0.80 | 0.75 | 0.94 | 0.93 |
| COCCCCCCCCCCCCCCCC1=C(C)/C(=N/OC)CCC1(C)C [Compound 68, 3-(15-methoxypentadecyl)-2,4,4-trimethylcyclohex-2-en-1-one O-methyloxime] |  |  |  |  |  |  | 0.85 | 0.92 | 0.73 | 0.71 | 0.95 | 0.89 |
| COCCCCCCCCCCCCCCCC1=C(C)C(=O)CC1(C)C [Compound 69, 3-(15-methoxypentadecyl)-2,4,4-trimethylcyclopent-2-en-1-one] |  |  |  |  |  |  | 0.89 | 0.89 | 0.75 | 0.80 | 0.70 | 0.47 |
| COCCCCCCCCCCCCC1=C(C)C(=O)CC1(C)C [Compound 70, 3-(12-methoxydodecyl)-2,4,4-trimethylcyclopent-2-en-1-one] |  |  |  |  |  |  | 0.84 | 0.91 | 0.91 | 0.86 | 0.79 | 0.73 |
| CCCOCCCCCCCCCCCCC1=C(C)C(=O)CC1(C)C [Compound 71, 2,4,4-trimethyl-3-(12-propoxydodecyl)cyclopent-2-en-1-one] |  |  |  |  |  |  | 0.87 | 0.94 | 0.87 | 0.79 | 0.39 | 0.07 |
| COCCCCCCCCCCCCCCC1=C(C)C(=O)CC1(C)C [Compound 72, 3-(14-methoxytetradecyl)-2,4,4-trimethylcyclopent-2-en-1-one] |  |  |  |  |  |  | 0.84 | 0.85 | 0.78 | 0.80 | 0.41 | 0.38 |
| CCOCCCCCCCCCCCCCCC1=C(C)C(=O)CC1(C)C [Compound 73, 2,4,4-trimethyl-3-(14-ethoxytetradecyl)cyclopent-2-en-1-one] |  |  |  |  |  |  | 0.91 | 0.86 | 0.84 | 0.82 | 0.61 | 0.09 |
| CC1=C(CCCCCCCCCCCCCCC(N)=O)C(C)(C)CC1=O [Compound 74, 15-(2,5,5-trimethyl-3-oxocyclopent-1-en-1-yl)pentadecanamide] |  |  |  |  |  |  | 0.74 | 0.75 | 0.71 | 0.73 | 0.60 | 0.26 |
| CC1=C(CCCCCCCCCCCCCCC#N)C(C)(C)CC1=O [Compound 75, 15-(2,5,5-trimethyl-3-oxocyclopent-1-en-1-yl)pentadecanitrile] |  |  |  |  |  |  | 0.89 | 0.93 | 0.94 | 0.80 | 0.75 | 0.80 |
